# According to patent publication US20240116912A1, “COMPOUNDS AND METHODS FOR MODULATING FXR” (Terns Pharmaceuticals, Inc., priority 2020, published 2024):
# Values joined by “and” are separate entries in the source; they are usually repeats but may differ in a detail not shown here. Identical values can stand only once.
# How the values were obtained:
# [1] = biological target: ligand binding domain (LBD) of recombinant human FXR (Homo sapiens (Human), UniProt Q96RI1); assay: FXR cell free coactivator (SRC-1) recruitment assay, TR-FRET; conditions: FXR LBD (amino acids 244-476) with labeled SRC-1 domain, 25° C. for 60 minutes, activity relative to CDCA maximum; read-out: EC50 FXR- Biochemical TR-FRET/μM
# ligand binding domain (LBD) of recombinant human FXR, sequence (Q96RI1 254-486): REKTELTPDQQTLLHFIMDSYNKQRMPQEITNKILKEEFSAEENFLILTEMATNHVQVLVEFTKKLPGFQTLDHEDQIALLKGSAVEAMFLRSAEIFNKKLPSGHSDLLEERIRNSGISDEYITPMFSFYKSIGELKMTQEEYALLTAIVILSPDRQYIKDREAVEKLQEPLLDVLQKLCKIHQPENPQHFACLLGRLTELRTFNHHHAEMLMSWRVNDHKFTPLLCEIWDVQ
# ligand binding domain (LBD) of recombinant human FXR, sequence (Q15788 whole entry partner, the tested form may be a part): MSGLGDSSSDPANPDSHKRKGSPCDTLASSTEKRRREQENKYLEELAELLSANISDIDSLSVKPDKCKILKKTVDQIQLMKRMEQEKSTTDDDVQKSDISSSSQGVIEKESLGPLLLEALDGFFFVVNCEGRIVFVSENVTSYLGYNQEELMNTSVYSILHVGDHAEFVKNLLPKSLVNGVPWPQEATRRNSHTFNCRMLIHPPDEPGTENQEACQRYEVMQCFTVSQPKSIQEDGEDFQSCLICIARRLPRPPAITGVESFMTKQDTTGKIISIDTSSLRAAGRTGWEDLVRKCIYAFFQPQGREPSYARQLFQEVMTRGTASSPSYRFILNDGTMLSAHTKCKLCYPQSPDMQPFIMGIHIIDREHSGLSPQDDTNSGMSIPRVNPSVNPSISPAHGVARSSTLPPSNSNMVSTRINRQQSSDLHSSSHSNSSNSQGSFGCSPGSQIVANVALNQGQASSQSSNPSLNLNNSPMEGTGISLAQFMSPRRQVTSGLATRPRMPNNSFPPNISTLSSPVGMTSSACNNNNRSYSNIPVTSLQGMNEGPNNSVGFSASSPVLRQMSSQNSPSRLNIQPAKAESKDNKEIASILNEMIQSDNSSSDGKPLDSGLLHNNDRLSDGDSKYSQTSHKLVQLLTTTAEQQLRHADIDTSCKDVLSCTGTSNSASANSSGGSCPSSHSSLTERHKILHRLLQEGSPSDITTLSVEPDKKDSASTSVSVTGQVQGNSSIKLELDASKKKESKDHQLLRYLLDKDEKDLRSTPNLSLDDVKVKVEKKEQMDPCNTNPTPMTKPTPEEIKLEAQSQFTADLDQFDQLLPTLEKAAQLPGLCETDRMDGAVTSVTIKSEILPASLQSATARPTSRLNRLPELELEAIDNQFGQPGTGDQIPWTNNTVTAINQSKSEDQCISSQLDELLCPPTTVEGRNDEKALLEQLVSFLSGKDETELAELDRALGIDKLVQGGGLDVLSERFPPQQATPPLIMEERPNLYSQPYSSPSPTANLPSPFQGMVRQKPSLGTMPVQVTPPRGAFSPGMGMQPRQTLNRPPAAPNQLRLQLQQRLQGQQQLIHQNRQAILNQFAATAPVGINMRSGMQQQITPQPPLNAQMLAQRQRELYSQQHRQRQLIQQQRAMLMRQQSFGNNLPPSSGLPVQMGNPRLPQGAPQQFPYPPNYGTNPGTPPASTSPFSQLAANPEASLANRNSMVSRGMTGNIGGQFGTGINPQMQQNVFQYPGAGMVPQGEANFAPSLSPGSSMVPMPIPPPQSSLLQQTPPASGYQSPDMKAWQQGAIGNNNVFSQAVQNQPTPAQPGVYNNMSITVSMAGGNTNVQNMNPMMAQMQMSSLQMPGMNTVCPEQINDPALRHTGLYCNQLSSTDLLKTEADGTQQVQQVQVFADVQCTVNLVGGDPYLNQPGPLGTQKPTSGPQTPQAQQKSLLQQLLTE
# Summary of the method: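 Purified SF9-expressed FXR LBD (aa 244-476) was incubated with compounds (0-10 micromolar) and labeled SRC-1 interaction domain in TR-FRET coregulator buffer G, 60 min at 25° C, 1.2% DMSO. Activity at each concentration was taken as percent of maximal CDCA response to build dose-response curves.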
# [2] = biological target: full length human FXR protein (Homo sapiens (Human), UniProt Q96RI1); assay: FXR cellular assay (FXR-SRCP β-gal enzyme fragment complementation in CHO-K1 cells, chemiluminescence); assay type: cell-based; conditions: CHO-K1 cells with SRCP-EA and ProLink-labeled FXR, 0-10 micromolar compound, 37° C. for 6h, read-out: EC50 FXR-cell Luminescence/
# full length human FXR protein, sequence (Q96RI1 whole entry, the tested form may be a part): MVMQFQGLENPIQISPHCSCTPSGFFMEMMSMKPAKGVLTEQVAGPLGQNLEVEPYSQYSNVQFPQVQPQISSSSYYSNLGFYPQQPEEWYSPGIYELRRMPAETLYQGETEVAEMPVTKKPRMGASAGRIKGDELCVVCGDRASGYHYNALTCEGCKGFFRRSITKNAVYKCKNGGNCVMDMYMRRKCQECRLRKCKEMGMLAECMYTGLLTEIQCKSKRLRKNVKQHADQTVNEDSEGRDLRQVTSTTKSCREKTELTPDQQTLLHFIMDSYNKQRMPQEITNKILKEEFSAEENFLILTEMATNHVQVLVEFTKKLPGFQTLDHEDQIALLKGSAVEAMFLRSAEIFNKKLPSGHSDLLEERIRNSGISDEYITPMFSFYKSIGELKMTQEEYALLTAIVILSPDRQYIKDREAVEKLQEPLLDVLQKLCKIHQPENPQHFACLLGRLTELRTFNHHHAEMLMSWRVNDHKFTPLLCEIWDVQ
# Summary of the method: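 CHO-K1 cells stably expressing ProLink-tagged full-length FXR and SRCP-EA treated with compound (0-10 micromolar, 1% DMSO) for 6 h at 37 °C. Ligand-driven FXR-coactivator binding reconstitutes β-gal; chemiluminescence read after 1 h detection reagent at room temperature.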
Compound,EC50 [1],EC50 [2]
"O=c1cc(-c2ccc(N3CCC(OCc4c(-c5c(Cl)cccc5Cl)noc4C4CC4)CC3)cc2)o[nH]1 [Example 16, 5-(4-(4-((5-cyclopropyl-3-(2,6-dichlorophenyl)isoxazol-4-yl)methoxy)piperidin-1-yl)phenyl)isoxazol-3(2H)-one]",0.024 µM,195 nM
"C[C@@H]1C[C@H](OCc2c(-c3c(Cl)cccc3Cl)noc2C2CC2)CCN1c1ccc(-c2noc(=O)[nH]2)cn1 [Example 71, 3-(6-((2R,4R)-4-((5-cyclopropyl-3-(2,6-dichlorophenyl)isoxazol-4-yl)methoxy)-2-methylpiperidin-1-yl)pyridin-3-yl)-1,2,4-oxadiazol-5(4H)-one]",0.0021 µM,24.7 nM
"O=c1[nH]nc(-c2ccc(N3CCC(OCc4c(-c5c(Cl)cccc5Cl)noc4C4CC4)CC3)cc2)c(=O)[nH]1 [Example 10, 6-(4-(4-((5-cyclopropyl-3-(2,6-dichlorophenyl)isoxazol-4-yl)methoxy)piperidin-1-yl)phenyl)-1,2,4-triazine-3,5(2H,4H)-dione]",0.0091 µM,409 nM
"O=c1[nH]c(-c2ccc(N3CCC(OCc4c(-c5c(Cl)cccc5Cl)noc4C4CC4)C(F)(F)C3)cc2)no1 (stereo not shown) [Example 53, 3-(4-(4-((5-cyclopropyl-3-(2,6-dichlorophenyl)isoxazol-4-yl)methoxy)-3,3-difluoropiperidin-1-yl)phenyl)-1,2,4-oxadiazol-5(4H)-one]",0.009 µM,94.3 nM
"O=c1cc(-c2ccc(N3CCC(OCc4c(-c5ccccc5OC(F)(F)F)noc4C4CC4)CC3)cc2)o[nH]1 [Example 52, 5-(4-(4-((5-cyclopropyl-3-(2-(trifluoromethoxy)phenyl)isoxazol-4-yl)methoxy)piperidin-1-yl)phenyl)isoxazol-3(2H)-one]",0.143 µM,1630 nM
"O=c1cn[nH]c(=O)n1-c1ccc(N2CCC(OCc3c(-c4c(Cl)cccc4Cl)noc3C3CC3)CC2)cc1 [Example 62, 4-(4-(4-((5-cyclopropyl-3-(2,6-dichlorophenyl)isoxazol-4-yl)methoxy)piperidin-1-yl)phenyl)-1,2,4-triazine-3,5(2H,4H)-dione]",6.35 µM and 6.07 µM,> 10000 nM and 4730 nM
"O=c1[nH]c(-c2ccc(N3CCC(OCc4c(-c5c(Cl)cccc5Cl)noc4C4CC4)CC3)cc2)no1 [Example 3, 3-(4-(4-((5-cyclopropyl-3-(2,6-dichlorophenyl)isoxazol-4-yl)methoxy)piperidin-1-yl)phenyl)-1,2,4-oxadiazol-5(4H)-one]",0.0036 µM and 0.0029 µM,97 nM and 49.8 nM
"O=c1[nH]c(-c2ccc(N3CCC(OCc4c(-c5ccccc5Cl)noc4C4CC4)CC3)cc2)no1 [Example 44, 3-(4-(4-((3-(2-chlorophenyl)-5-cyclopropylisoxazol-4-yl)methoxy)piperidin-1-yl)phenyl)-1,2,4-oxadiazol-5(4H)-one]",0.0213 µM,371 nM
"O=c1[nH]nc(-c2ccc(N3[C@@H]4CC[C@H]3C[C@@H](OCc3c(-c5ccccc5OC(F)(F)F)noc3C3CC3)C4)nc2)o1 [Example 68, 5-(6-((1R,3r,5S)-3-((5-cyclopropyl-3-(2-(trifluoromethoxy)phenyl)isoxazol-4-yl)methoxy)-8-azabicyclo[3.2.1]octan-8-yl)pyridin-3-yl)-1,3,4-oxadiazol-2(3H)-one]",0.0264 µM,168 nM
"O=c1[nH]c(-c2cc(N3CCC(OCc4c(-c5c(Cl)cccc5Cl)noc4C4CC4)CC3)n[nH]2)no1 [Example 58, 3-(3-(4-((5-cyclopropyl-3-(2,6-dichlorophenyl)isoxazol-4-yl)methoxy)piperidin-1-yl)-1H-pyrazol-5-yl)-1,2,4-oxadiazol-5(4H)-one]",0.421 µM,11700 nM
"O=C(c1noc(=O)[nH]1)N1CCC(OCc2c(-c3c(Cl)cccc3Cl)noc2C2CC2)CC1 [Example 1, 3-(4-((5-cyclopropyl-3-(2,6-dichlorophenyl)isoxazol-4-yl)methoxy)piperidine-1-carbonyl)-1,2,4-oxadiazol-5(4H)-one]",3.18 µM,1130 nM
